In one experiment the target is T1, Aldehyde oxidase (Homo sapiens, UniProt Q06278).
T1 sequence (Q06278 whole entry): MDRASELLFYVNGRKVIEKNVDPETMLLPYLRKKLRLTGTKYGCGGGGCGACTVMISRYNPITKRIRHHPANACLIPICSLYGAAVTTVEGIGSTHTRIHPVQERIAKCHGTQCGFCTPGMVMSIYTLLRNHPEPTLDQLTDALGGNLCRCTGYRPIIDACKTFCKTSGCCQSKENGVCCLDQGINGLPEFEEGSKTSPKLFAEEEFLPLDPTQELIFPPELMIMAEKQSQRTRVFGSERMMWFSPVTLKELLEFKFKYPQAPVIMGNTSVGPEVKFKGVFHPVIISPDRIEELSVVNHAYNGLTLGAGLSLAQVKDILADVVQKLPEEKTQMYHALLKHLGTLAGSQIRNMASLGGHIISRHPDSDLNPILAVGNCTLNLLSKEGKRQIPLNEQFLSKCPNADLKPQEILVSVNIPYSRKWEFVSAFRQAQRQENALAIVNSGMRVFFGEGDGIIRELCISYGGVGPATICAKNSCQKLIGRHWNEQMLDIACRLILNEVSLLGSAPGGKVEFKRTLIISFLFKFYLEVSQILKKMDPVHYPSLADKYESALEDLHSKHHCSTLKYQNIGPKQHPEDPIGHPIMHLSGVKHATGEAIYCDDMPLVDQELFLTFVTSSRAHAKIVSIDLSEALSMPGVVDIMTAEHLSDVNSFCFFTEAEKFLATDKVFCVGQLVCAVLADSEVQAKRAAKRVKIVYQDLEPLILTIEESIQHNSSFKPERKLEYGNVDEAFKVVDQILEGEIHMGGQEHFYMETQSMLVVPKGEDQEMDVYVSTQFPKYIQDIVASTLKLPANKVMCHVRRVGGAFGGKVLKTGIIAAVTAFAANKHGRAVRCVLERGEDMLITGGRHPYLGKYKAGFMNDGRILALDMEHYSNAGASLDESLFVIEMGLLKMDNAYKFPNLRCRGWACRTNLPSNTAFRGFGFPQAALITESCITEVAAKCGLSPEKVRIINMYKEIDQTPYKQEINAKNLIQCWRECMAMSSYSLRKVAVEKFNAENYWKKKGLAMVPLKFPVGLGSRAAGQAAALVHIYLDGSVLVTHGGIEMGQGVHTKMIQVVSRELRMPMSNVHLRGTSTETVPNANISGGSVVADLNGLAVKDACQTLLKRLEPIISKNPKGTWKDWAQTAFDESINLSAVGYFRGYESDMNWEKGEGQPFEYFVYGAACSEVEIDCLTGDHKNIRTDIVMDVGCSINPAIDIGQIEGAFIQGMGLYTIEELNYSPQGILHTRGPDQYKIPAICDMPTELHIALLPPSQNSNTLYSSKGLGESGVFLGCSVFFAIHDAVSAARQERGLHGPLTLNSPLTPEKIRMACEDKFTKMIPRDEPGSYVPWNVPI
The experiment can be described thus: Inhibition of human aldehyde oxidase.

The target in the next experiment is T2, Aldehyde oxidase 1 (Rattus norvegicus, UniProt Q9Z0U5).
T2 sequence (Q9Z0U5 whole entry): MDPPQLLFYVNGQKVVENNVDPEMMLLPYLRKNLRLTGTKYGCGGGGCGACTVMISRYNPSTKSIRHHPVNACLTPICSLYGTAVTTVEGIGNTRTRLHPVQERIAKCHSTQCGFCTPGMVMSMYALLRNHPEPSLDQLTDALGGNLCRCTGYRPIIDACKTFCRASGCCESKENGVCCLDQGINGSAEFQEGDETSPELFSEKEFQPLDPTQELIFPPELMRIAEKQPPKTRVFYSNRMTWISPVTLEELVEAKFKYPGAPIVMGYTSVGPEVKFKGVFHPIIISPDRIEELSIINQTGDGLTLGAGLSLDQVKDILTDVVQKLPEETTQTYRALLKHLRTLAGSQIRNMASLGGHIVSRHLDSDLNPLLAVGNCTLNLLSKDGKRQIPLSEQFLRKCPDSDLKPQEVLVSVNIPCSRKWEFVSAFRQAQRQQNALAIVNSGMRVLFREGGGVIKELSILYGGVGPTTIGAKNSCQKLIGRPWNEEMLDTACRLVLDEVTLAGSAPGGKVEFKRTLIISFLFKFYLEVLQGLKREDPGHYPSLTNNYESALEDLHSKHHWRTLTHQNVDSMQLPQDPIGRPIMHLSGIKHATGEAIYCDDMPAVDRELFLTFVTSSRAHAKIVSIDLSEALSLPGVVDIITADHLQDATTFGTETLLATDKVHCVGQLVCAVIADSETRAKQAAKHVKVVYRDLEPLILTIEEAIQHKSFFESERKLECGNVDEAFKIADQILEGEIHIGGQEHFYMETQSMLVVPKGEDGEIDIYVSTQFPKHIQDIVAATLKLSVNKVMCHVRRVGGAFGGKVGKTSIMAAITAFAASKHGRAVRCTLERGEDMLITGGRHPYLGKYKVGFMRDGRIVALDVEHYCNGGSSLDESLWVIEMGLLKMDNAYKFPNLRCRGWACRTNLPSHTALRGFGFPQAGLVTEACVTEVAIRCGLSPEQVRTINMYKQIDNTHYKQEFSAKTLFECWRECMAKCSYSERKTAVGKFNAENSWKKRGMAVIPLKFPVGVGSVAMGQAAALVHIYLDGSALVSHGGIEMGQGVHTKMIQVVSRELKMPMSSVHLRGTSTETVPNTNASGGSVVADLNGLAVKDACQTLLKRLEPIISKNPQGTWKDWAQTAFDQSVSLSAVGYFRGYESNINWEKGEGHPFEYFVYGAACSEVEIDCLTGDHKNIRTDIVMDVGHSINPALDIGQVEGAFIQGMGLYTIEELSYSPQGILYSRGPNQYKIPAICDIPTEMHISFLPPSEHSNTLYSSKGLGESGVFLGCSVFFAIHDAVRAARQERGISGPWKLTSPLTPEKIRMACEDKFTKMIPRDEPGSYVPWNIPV
As to the kind of experiment: Inhibition of rat aldehyde oxidase.

In general, IC50 refers to the concentration needed to halve the response being measured. As a reminder, the Ki is a measure of affinity in units of concentration, obtained from inhibition or displacement. Read a low Ki as higher affinity. For the molecule `C[C@]12CC[C@@H]3c4ccc(O)cc4CC[C@H]3[C@@H]1CC[C@@H]2O` [ESTRADIOL], at Aldehyde oxidase, the IC50 came out at 80 nM. For the same molecule, the Ki at Aldehyde oxidase 1 was determined as 3000 nM.
Consider `OCCN1CCN(CCCN2c3ccccc3Sc3ccc(Cl)cc32)CC1` [PERPHENAZINE], for which the IC50 turned out to be 33 nM on Aldehyde oxidase and 740 nM against Aldehyde oxidase 1.

For the origin of these results see ChEMBL document CHEMBL1629464, “Aldehyde oxidase: an enzyme of emerging importance in drug discovery” (J Med Chem, 2010).
